# Source: patent publication US8129427B2, “2-phenylethylamino derivatives as calcium and/or sodium channel modulators” (Newron Pharmaceuticals S.p.A., priority 2005, dated 2012)
# pIC50: −log10 of the molar value. Structures can show the parent of a compound that is named as a salt. Where two headings read alike, the source gives them in different places.
# Columns and labels:
# N-type calcium channels = N-type calcium channels (Homo sapiens, UniProt Q00975); assay: N-type calcium channel influx assay (fluorescence); type: cell-based
# L-type calcium channels = type: cell-based, mouse; settings: AtT20/D16v-F2 cells, ω-conotoxin 1 μM, 100 mM KCl depolarization
# MAO-B = target: T1, MAO-B (Rattus norvegicus, UniProt P19643); assay: In vitro MAO-B enzyme activity radioenzymatic assay; type: biochemical; settings: 100 μM compound, rat brain crude mitochondrial fraction, 14C-PEA substrate
# T1 construct: from tissue; host or cells: rat brain crude mitochondrial fraction
# T1 sequence (P19643 1-520): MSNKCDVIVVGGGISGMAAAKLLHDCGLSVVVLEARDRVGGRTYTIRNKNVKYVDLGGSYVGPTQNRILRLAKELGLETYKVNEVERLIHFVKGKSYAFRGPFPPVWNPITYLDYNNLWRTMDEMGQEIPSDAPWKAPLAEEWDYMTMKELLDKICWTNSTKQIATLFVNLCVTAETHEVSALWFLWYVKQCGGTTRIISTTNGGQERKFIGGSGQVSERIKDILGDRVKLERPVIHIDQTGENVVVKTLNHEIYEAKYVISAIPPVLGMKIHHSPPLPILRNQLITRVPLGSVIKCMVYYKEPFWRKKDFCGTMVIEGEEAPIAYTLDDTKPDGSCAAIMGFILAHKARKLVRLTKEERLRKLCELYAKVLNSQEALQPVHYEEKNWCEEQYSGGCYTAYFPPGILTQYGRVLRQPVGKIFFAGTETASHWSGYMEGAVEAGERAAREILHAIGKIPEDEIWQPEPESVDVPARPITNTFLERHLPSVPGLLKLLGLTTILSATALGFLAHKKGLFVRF
# Experimental: Male Wistar rats (Harlan, Italy—175-200 g) were sacrificed under light anaesthesia and brains were rapidly removed and homogenized in 8 volumes of ice-cold 0.32 M sucrose buffer containing 0.1 M EDTA, pH 7.4. The crude homogenate was centrifuged at 2220 rpm for 10 minutes and the supernatant recovered. The pellet was homogenized and centrifuged again. The two supernatants were pooled and centrifuged at 9250 rpm for 10 minutes at +4° C. The pellet was resuspended in fresh buffer and centrifuged at 11250 rpm for 10 minutes at +4° C. The resulting pellet was stored at −80° C.
# The enzyme activities were assessed with a radioenzymatic assay using the substrates ^14C-serotonin (5-HT) and ^14C-phenylethylamine (PEA) for MAO-A and MAO-B, respectively.
# The mitochondrial pellet (500 μg protein) was resuspended in 0.1 M phosphate buffer (pH 7.4). 500 μl of the suspension were added to a 50 μl solution of the test compound or buffer, and incubated for 30 min at 37° C. (preincubation) then the substrate (50 μl) was added. The incubation was carried out for 30 minutes at 37° C. (^14C-5-HT, 5 μM) or for 10 minutes at 37° C. (^14C-PEA, 0.5 μM).
# The reaction was stopped by adding 0.2 ml of 37% HCl or perchloric acid. After centrifugation, the deaminated metabolites were extracted with 3 ml of diethyl ether (5-HT) or toluene (PEA) and the radioactive organic phase was measured by liquid scintillation spectrometry at 90% efficiency. The amount of neutral and/or acidic metabolites formed as a result of MAO activity was obtained by measuring the radioactivity of the eluate.
# The activity of MAO in the sample, corresponding to a percentage of radioactivity compared with the control activity in the absence of the inhibitor, was expressed as nmoles of substrate transformed/mg protein/min.
# [1] = target: recombinant human N-type channels, h α1B (hCav2.2)+β1b+α2δ-1 subunits (Homo sapiens, UniProt Q00975); assay: Patch clamp studies of calcium currents inhibition in HEK293 cells; type: cell-based; settings: tonic block, preconditioning −50/−55 mV (half maximal steady-state inactivated condition); read-out: IC50 (Vhalf)
# Experimental: Functional inhibition of the N-type Ca currents was studied using whole cell patch clamp methods (Hamill O. P., Marty A., Neher E., Sakmann B., Sigworth F. J. Pflugers Arch. (1981) 391: 85-100) on HEK293 cells expressing recombinant human N-type channels, obtained after transient transfection of h α1B (hCav2.2)+β1b+α2δ-1 subunits.
# Membrane currents were recorded and filtered at 5 kHz with an Axon Axopatch 200B amplifier and digitized with an Axon Digidata 1322A (Axon Instruments, CA, USA). Voltage clamping of membrane potentials and data acquisition were controlled online with Axon pClamp8 software. Measuring and reference electrodes were AgCl—Ag electrodes. Cells had initial seal resistances of >1 GΩ and access resistances of 4.2±0.2 MΩ. Cells were continuously superfused with extracellular solutions using a Biologic RSC-200.
# For calcium currents recording the control bath solution contained (mM): Choline chloride (70), MgCl2 (1), BaCl2 (20), TEA.Cl (50), Hepes (10), Glucose (10). Internal pipette solution consisted of (mM): CsCl (140), EGTA (10), MgCl2 (2), Hepes (10), MgATP (1), GTP Tris (0.3).
# Compounds were dissolved as 20 mM stock solutions in DMSO and then diluted to the final concentration in the external solutions.
# A two-step protocol was used to determine the voltage dependence of the block:
# N-type current was activated by a 600 ms step pulse to +10 mV (test pulse) from a 5000 ms preconditioning potential of −110 mV (resting condition) or −50/−55 mV (half maximal steady-state inactivated condition), respectively.
# The amplitude of calcium current peaks evoked by the respective test pulses at a frequency of 0.06 Hz were measured before and after exposure to the test substance. Tonic block of currents was calculated as the difference between the peak calcium current measured at the end of a stabilization period in the control external bath solution and peak currents measured at the end of test substance perfusion period (when steady state is reached) divided by control peaks. […]
# TTXs sodium channels = assay: TTXs-sodium channel influx assay (membrane potential fluorescence); type: cell-based, rat; settings: ND7/23 cells, veratridine 100 μM
# Experimental: ND7/23 rat dorsal root ganglion-derived cell line endogenously expresses a mixed population of TTXs sodium channels (such as Nav1.3, Nav1.2, Nav1.1, Nav1.6). These cells lack of TTXr sodium channels as shown by the absence of their respective transcripts. ND7/23 cells were grown in DMEM supplemented with 10% FBS and 1 mM sodium piruvate.
# The cells were seeded at 50,000 cells/well on 96 poly-L-lysine-coated plates and further incubated for 18-24 h before use.
# The Membrane Potential Kit Assay (Molecular Devices), based on a negatively charged fluorescent dye able to monitor changes in membrane potential caused by the sodium influx due to the channel opening, was used for the assay.
# Cells were incubated with the dye loading for 30 minutes at 25° C. Then, 100 nM of the toxin Anemonia sulcata (used as enhancer of the channel opener response) alone or in the presence of TTX (as reference standard) or test compound were added for further 15 minutes.
# The fluorescence (excitation: 530 nm, emission: 565 nm wavelength) was measured before and after (40-45 s) the automated injection of the sodium channel opener veratridine (100 μM) using a Victor plate reader (Perkin Elmer).
# The inhibition curves were calculated from 5 concentrations, each in triplicate, and the IC50 determined using a linear regression analysis.
# [2] = differentiated IMR32 cells, nifedipine 1 μM, 100 mM KCl depolarization, read-out: IC50
# Chain of N-type calcium channels (Q00975 whole entry): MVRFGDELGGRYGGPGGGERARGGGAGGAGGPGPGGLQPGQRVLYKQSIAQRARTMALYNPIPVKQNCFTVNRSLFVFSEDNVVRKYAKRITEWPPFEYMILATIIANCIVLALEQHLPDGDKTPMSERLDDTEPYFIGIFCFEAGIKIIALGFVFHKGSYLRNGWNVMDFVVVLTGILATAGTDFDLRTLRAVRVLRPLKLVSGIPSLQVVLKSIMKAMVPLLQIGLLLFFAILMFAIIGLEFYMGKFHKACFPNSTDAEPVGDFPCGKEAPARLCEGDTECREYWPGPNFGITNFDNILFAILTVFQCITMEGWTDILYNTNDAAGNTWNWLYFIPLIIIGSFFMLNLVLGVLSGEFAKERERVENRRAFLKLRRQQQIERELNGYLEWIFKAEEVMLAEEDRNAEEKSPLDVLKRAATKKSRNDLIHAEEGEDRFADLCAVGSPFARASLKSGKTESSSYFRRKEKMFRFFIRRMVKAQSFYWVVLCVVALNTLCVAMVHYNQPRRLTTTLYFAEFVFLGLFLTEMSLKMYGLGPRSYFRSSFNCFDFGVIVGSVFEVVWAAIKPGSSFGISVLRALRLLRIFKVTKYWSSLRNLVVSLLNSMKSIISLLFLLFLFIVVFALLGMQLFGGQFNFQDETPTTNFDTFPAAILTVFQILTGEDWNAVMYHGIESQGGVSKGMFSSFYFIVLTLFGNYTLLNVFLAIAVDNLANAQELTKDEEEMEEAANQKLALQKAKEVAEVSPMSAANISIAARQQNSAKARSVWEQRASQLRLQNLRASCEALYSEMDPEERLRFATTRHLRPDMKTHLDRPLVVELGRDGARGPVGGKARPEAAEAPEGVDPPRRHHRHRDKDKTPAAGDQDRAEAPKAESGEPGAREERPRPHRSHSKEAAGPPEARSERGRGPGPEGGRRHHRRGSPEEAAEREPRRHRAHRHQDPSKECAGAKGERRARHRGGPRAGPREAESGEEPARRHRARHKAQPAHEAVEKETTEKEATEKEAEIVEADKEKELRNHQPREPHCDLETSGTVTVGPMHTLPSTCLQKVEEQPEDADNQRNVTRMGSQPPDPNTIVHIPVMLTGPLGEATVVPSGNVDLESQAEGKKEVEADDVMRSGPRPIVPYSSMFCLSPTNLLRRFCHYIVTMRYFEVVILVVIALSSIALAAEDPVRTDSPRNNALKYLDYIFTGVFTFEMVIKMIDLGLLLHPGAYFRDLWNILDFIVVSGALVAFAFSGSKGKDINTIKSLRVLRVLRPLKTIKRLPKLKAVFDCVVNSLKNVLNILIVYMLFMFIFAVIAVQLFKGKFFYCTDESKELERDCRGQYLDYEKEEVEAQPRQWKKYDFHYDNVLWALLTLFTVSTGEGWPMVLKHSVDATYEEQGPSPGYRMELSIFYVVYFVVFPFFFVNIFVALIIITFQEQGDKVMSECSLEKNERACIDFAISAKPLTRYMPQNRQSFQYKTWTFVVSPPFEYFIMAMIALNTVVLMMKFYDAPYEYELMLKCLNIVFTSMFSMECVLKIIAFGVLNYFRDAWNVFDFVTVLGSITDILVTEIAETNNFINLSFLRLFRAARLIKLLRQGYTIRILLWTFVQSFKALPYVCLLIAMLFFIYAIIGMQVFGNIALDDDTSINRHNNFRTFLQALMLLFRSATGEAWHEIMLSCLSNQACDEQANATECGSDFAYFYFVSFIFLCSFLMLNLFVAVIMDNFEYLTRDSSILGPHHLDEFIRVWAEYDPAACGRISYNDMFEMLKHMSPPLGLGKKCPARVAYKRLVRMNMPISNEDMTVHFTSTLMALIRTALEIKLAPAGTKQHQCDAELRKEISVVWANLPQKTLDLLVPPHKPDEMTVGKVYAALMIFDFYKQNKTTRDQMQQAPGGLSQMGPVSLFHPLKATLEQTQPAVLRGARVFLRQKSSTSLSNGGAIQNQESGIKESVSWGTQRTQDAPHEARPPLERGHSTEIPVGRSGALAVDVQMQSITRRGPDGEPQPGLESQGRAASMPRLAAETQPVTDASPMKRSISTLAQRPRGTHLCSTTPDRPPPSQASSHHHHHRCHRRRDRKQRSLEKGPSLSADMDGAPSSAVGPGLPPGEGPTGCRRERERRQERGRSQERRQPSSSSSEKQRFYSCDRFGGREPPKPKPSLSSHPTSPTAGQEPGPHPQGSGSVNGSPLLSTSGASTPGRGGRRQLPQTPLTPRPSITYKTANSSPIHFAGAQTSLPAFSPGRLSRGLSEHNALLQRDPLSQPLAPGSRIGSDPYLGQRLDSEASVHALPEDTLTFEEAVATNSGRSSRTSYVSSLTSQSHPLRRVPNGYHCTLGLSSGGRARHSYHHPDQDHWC
# Chain of N-type calcium channels (Q02641 whole entry partner): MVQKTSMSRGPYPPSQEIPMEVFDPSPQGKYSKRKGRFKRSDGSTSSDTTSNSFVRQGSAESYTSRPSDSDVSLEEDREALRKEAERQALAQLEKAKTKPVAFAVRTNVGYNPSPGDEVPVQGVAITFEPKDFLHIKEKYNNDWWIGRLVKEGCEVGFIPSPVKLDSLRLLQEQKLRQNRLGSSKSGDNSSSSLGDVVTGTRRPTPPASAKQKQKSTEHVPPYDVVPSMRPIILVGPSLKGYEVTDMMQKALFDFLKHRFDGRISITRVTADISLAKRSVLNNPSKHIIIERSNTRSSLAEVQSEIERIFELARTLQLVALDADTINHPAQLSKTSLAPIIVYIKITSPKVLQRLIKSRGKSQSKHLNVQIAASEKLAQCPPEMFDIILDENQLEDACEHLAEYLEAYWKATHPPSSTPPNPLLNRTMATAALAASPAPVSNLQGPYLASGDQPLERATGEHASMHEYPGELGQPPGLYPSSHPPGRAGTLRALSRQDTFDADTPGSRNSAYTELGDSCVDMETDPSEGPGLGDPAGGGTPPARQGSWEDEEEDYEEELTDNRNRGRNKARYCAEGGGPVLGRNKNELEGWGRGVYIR
# Chain of N-type calcium channels (P54289 25-956 partner limits assumed): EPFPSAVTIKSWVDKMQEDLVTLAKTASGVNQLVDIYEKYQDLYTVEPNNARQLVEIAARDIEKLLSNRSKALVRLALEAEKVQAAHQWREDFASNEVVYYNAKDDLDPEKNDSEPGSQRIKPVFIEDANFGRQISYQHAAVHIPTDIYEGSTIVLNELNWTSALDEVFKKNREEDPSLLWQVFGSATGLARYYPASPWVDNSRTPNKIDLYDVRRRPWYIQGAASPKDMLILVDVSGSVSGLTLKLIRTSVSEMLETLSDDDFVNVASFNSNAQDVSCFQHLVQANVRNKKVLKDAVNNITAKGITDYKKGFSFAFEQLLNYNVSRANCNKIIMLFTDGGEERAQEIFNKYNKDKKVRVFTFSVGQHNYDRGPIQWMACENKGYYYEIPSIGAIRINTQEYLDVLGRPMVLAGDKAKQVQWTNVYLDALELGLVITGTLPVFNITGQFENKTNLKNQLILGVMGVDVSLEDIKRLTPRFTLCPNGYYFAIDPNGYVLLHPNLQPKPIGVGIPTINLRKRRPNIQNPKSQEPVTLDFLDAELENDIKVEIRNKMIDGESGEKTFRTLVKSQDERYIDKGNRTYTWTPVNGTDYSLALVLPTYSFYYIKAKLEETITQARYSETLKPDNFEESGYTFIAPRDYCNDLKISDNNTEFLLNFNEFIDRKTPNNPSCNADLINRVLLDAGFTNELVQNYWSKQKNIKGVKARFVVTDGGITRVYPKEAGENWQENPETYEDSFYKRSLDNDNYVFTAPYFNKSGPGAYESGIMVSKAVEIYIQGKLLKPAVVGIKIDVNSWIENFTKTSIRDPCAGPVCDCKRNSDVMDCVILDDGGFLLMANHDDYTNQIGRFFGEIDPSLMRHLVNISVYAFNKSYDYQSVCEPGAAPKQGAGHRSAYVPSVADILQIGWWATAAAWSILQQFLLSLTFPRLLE
# Chain of N-type calcium channels (P54289 957-1103 partner limits assumed): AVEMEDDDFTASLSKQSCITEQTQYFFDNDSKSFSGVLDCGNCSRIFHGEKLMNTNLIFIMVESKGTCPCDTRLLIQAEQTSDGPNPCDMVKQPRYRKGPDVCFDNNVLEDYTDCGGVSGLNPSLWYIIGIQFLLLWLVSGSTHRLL
# Chain of recombinant human N-type channels, h α1B (hCav2.2)+β1b+α2δ-1 subunits (Q00975 whole entry): as the sequence (Q00975 whole entry) above
# Chain of recombinant human N-type channels, h α1B (hCav2.2)+β1b+α2δ-1 subunits (Q02641 whole entry partner): as the sequence (Q02641 whole entry partner) above
# Chain of recombinant human N-type channels, h α1B (hCav2.2)+β1b+α2δ-1 subunits (P54289 25-956 partner limits assumed): as the sequence (P54289 25-956 partner limits assumed) above
# Chain of recombinant human N-type channels, h α1B (hCav2.2)+β1b+α2δ-1 subunits (P54289 957-1103 partner limits assumed): as the sequence (P54289 957-1103 partner limits assumed) above
SMILES,pIC50 (N-type calcium channels; [2]),pIC50 (L-type calcium channels),inhibition at 100 µM (MAO-B),pIC50 [1],pIC50 (TTXs sodium channels),pIC50 (N-type calcium channels)
"CNC(=O)CN(CCc1ccc(OCc2cccc(F)c2)c(OC)c1)CC(C)C [Example 2, 2-[[2-[4-(3-Fluoro-benzyloxy)-3-methoxy-phenyl]-ethyl]-isobutylamino]-N-methyl-acetamide hydrochloride]",5.32,5.51,53%,,,
"CNC(=O)CN(CCc1ccc(OCc2cccc(F)c2)c(OC)c1)CC1CCOC1 (stereo not shown) [Example 7, 2-[[2-[4-(3-Fluoro-benzyloxy)-3-methoxy-phenyl]-ethyl]-(tetrahydrofuran-3-ylmethyl)amino]-N-methyl-acetamide hydrochloride]",,,,4.96,,
"CNC(=O)CN(CCc1ccc(OCc2cccc(F)c2)c(OC)c1)Cc1ccoc1 [Example 10, 2-[[2-[4-(3-Fluoro-benzyloxy)-3-methoxy-phenyl]-ethyl]-(furan-3-ylmethyl)amino]-N-methyl-acetamide hydrochloride]",,5.77,,,,
"CNC(=O)CN(CCc1ccc(OCc2cccc(F)c2)c(OC)c1)Cc1ccc(OC)nc1 [Example 14, 2-[[2-[4-(3-Fluoro-benzyloxy)-3-methoxy-phenyl]-ethyl]-(6-methoxy-pyridin-3-ylmethyl)amino]-N-methyl-acetamide]",,,,,5.54,
"COc1cc(CCN(CC(=O)N(C)C)Cc2ccccc2)ccc1OCc1cccc(F)c1 [Example 20, 2-[[2-[4-(3-Fluoro-benzyloxy)-3-methoxy-phenyl]-ethyl]-benzylamino]-N,N-dimethyl-acetamide hydrochloride]",,5.34,3%,,,5.96
"CNC(=O)[C@H](CC(C)C)NCCc1ccc(OCc2cccc(F)c2)c(OC)c1 [Example 31, (S)-2-[2-[4-(3-Fluoro-benzyloxy)-3-methoxy-phenyl]-ethylamino]-N-methyl-4-methyl-valeramide]",,6.00,,,,
"COc1cc(CCNC(C(=O)N(C)C)c2ccccc2)ccc1OCc1cccc(F)c1 (stereo not shown) [Example 32, 2-[2-[4-(3-Fluoro-benzyloxy)-3-methoxy-phenyl]-ethylamino]-2-phenyl-N,N-dimethyl-acetamide hydrochloride]",,,0%,,,
"COc1cc(CCNC(C(=O)N2CCOCC2)c2ccccc2)ccc1OCc1cccc(F)c1 (stereo not shown) [Example 33, 2-[2-[4-(3-Fluoro-benzyloxy)-3-methoxy-phenyl]-ethylamino]-1-(morpholin-4-yl)-2-phenyl-ethanone hydrochloride]",5.22,5.15,0%,,5.68,
"CCNC(=O)CN(CCc1ccc(OCc2cccc(F)c2)c(OC)c1)Cc1ccccc1 [Example 37, 2-[[2-[4-(3-Fluoro-benzyloxy)-3-methoxy-phenyl]-ethyl]-benzylamino]-N-ethyl-acetamide hydrochloride]",,,4%,,5.92,
"COc1cc(CCN(CC(=O)N2CCCC2)Cc2ccccc2)ccc1OCc1cccc(F)c1 [Example 40, 2-[[2-[4-(3-Fluoro-benzyloxy)-3-methoxy-phenyl]-ethyl]-benzylamino]-1-(pyrrolidin-1-yl)-ethanone hydrochloride]",5.66,5.80,11%,,,
"COc1cc(CCN(CC(=O)NCC(C)(C)N)Cc2ccccc2)ccc1OCc1cccc(F)c1 [Example 42, 2-[[2-[4-(3-Fluoro-benzyloxy)-3-methoxy-phenyl]-ethyl]-benzylamino]-N-(2-amino-2-methyl-propyl)-acetamide hydrochloride]",5.59,5.62,32%,,,
"COc1cc(CCN(CC(=O)NCCN(C)C)Cc2ccccc2)ccc1OCc1cccc(F)c1 [Example 43, 2-[[2-[4-(3-Fluoro-benzyloxy)-3-methoxy-phenyl]-ethyl]-benzylamino]-N-(2-dimethylamino-ethyl)-acetamide hydrochloride]",5.72,5.92,33%,,,
"COc1cc(CCN(CC(=O)NCCC2CCCN2C)Cc2ccccc2)ccc1OCc1cccc(F)c1 (stereo not shown) [Example 44, 2-[[2-[4-(3-Fluoro-benzyloxy)-3-methoxy-phenyl]-ethyl]-benzylamino]-N-[2-(1-methyl-pyrrolidin-2-yl)-ethyl]-acetamide hydrochloride]",,,39%,,,
"CCNC(=O)CN(CCc1ccc(OCc2cccc(F)c2)c(OC)c1)CC1CC1 [Example 47, 2-[[2-[4-(3-Fluoro-benzyloxy)-3-methoxy-phenyl]-ethyl]-(cyclopropylmethyl)amino]-N-ethyl-acetamide hydrochloride]",,5.74,,,,
"CN(C)CCNC(=O)CN(CCc1cccc(OCc2cccc(F)c2)c1)Cc1ccco1 [Example 71, 2-[[2-[3-(3-Fluoro-benzyloxy)-phenyl]-ethyl]-(furan-2-ylmethyl)amino]-N-(2-dimethylamino-ethyl)-acetamide dihydrochloride]",5.72,5.47,34%,,,
"CC(C)(N)CNC(=O)CN(CCc1cccc(OCc2cccc(F)c2)c1)Cc1ccco1 [Example 72, 2-[[2-[3-(3-Fluoro-benzyloxy)-phenyl]-ethyl]-(furan-2-ylmethy ° amino]-N-(2-amino-2-methyl-propyl)-acetamidedihydrochloride]",5.59,5.54,31%,,,
